Where two headings read alike, the source gives them in different places.
Tests used:
Lp-PLA2 in rabbit serum = target: T1, Lp-PLA2 in rabbit serum (Oryctolagus cuniculus, UniProt G1SE06); experiment: In vitro inhibitory activity towards the enzyme Lp-PLA2 in rabbit serum, [3H]PAF substrate; type: biochemical; conditions: 100 nM
T1 construct: from tissue; host or cells: rabbit serum
T1 sequence (G1SE06 22-423): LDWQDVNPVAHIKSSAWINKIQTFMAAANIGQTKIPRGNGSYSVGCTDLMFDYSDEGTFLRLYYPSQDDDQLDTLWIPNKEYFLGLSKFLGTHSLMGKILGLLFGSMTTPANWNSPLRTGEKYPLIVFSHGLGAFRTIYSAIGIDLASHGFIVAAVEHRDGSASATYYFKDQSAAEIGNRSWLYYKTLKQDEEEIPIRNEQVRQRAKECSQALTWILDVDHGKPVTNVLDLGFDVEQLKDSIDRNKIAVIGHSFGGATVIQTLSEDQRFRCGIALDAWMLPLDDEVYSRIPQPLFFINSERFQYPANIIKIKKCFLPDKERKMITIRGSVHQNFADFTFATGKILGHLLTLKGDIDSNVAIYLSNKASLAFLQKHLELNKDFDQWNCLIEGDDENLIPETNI
Procedure: (§1) The activities of compounds were measured using [^3H] labeled platelet activating factor ([^3H]PAF, Perkinelmer, Lot NET910) as the substrate. The reaction was carried out in a system containing 50 mmol/L HEPES and 150 mmol/L NaCl (pH 7.4) in a total volume of 200 μl. First, 10 μL rabbit serum and 10 μl DMSO solution of the test compound were added to the system and preincubated for 10 min at 37° C. Then 20 nM [^3H]PAF was added as listed in table 1 to start the reaction and incubated for a further 10 min at 37° C. After that, 600 μl of CHCl3/MeOH (2:1) was added and the resulting mixture was vortex mixed and the reaction was stopped. After settled for a while, the mixture was centrifugated at 12000×g for 15 min. The supernatant was transferred to a new tube and 200 μl of CHCl3 was added. The mixture was mixed by vortexing and then settled or centrifugated for 2 min. A 100 μl portion of the supernatant was then collected for radioactivity intensity measurement.
The inhibition rate was determined by the following equation:
Inhibitory rate (%)=1−(DPMcompound tube−DPMblank tube)/(DPMcontrol tube−DPMblank tube)*100%
(Note: DPM is radioactivity intensity unit.)

Lp-PLA2 in human serum = target: T2, Lp-PLA2 in human serum (Homo sapiens, UniProt Q13093); experiment: In vitro inhibitory activity towards the enzyme Lp-PLA2 in human serum, [3H]PAF substrate; type: biochemical
T2 construct: from tissue
T2 sequence (Q13093 22-441): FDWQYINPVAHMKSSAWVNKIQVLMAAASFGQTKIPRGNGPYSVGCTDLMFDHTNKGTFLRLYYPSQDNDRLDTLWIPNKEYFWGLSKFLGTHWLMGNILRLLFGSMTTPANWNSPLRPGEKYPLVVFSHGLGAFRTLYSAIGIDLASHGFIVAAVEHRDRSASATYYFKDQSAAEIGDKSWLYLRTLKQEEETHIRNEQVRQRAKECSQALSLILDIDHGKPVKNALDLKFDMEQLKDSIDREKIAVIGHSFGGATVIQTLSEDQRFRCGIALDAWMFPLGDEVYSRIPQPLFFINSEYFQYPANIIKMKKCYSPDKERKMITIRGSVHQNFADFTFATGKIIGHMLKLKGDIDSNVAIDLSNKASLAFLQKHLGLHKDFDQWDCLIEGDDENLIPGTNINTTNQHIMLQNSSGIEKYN
Procedure: as §1, with “mmol/l” for “mmol/L”, “human plasma” for “rabbit serum”, “was” for “was vortex”, “with vortex.” for “and the reaction was stopped.”, “added and mixed by vortexing.” for “added.”, “was” for “was mixed by vortexing and then”

[1] = rabbit serum, read-out: inhibition, %
[2] = 10 nM, human serum, read-out: inhibition, %
[3] = read-out: inhibitory rate towards the rabbit serum derived Lp-PLA2 enzyme
[4] = 10 nM, read-out: inhibitory rate towards the human serum derived Lp-PLA2 enzyme

Row | inhibition at 0.1 µM (Lp-PLA2 in rabbit serum; [1]) | inhibition at 0.01 µM (Lp-PLA2 in human serum; [2]) | inhibition at 0.1 µM (Lp-PLA2 in human serum; 100 nM, human serum) | inhibition at 0.1 µM (Lp-PLA2 in rabbit serum; [3]) | inhibition at 0.01 µM (Lp-PLA2 in human serum; [4]) | inhibition, % (Lp-PLA2 in rabbit serum; rabbit serum, 0.1 µM) | inhibition, % (Lp-PLA2 in human serum; 10 nM, human serum, 0.01 µM) | inhibition, % (Lp-PLA2 in human serum; 100 nM, human serum, 0.1 µM) | SMILES
1 | 68% | 70% | 91% |  |  |  |  |  | CN1CCN(Cc2nnc(Cn3c(SCc4ccc(F)cc4)nc(=O)c4c3CCC4)n2Cc2ccc(-c3ccc(C(F)(F)F)cc3)cc2)CC1 [Example 107, 2-(4-fluorobenzylthio)-1-((5-((4-methylpiperazin-1-yl)methyl)-4-((4′-(trifluoromethyl)biphenyl-4-yl)methyl)-4H-1,2,4-triazol-3-yl)methyl)-6,7-dihydro-1H-cyclopenta[d]pyrimidin-4(5H)-one]
2 | 68% | 58% | 88% |  |  |  |  |  | CC(C)(C)N/N=C/c1nnc(Cn2c(SCc3ccc(F)cc3)nc(=O)c3c2CCC3)n1Cc1ccc(-c2ccc(C(F)(F)F)cc2)cc1 [Example 118]
3 | 85.3% | 68% | 93% |  |  |  |  |  | CCN(CC)Cc1nnc(Cn2c(SCc3ccc(F)cc3)nc(=O)c3c2CCC3)n1Cc1ccc(-c2ccc(C(F)(F)F)cc2)cc1 [Example 79, 1-((5-((diethylamino)methyl)-4-((4′-(trifluoromethyl)biphenyl-4-yl)methyl)-4H-1,2,4-triazol-3-yl)methyl)-2-(4-fluorobenzylthio)-6,7-dihydro-1H-cyclopenta[d]pyrimidin-4(5H)-one]
4 | 89% | 96% |  |  |  |  |  |  | CCN(CC)Cc1onc(Cn2c(SCc3ccc(F)cc3)nc(=O)c3c2CCC3)c1Cc1ccc(-c2ccc(C(F)(F)F)cc2)cc1 [Example 157, 1-((5-((diethylamino)methyl)-4-((4′-(trifluoromethyl)biphenyl-4-yl)methyl)isoxazol-3-yl)methyl)-2-(4-fluorobenzylthio)-6,7-dihydro-1H-cyclopenta[d]pyrimidin-4(5H)-one]
5 | 60% | 82% | 96% |  |  |  |  |  | Cc1nnc(Cn2cc(Cc3cnn(C)c3)c(=O)nc2SCc2ccc(F)cc2)n1Cc1ccc(-c2ccc(C(F)(F)F)cc2)cc1 [Example 65, 2-(4-fluorobenzylthio)-5-((1-methyl-1H-pyrazol-4-yl)methyl)-1-((5-methyl-4-((4′-(trifluoromethyl)biphenyl-4-yl)methyl)-4H-1,2,4-triazol-3-yl)methyl)pyrimidin-4(1H)-one]
6 | 98% | 72% |  |  |  |  |  |  | CN(C)CCNCc1nnc(Cn2c(SCc3ccc(F)cc3)nc(=O)c3c2CCC3)n1Cc1ccc(-c2ccc(C(F)(F)F)cc2)cc1 [Example 105, 1-((5-((2-(dimethylamino)ethylamino)methyl)-4-((4′-(trifluoromethyl)biphenyl-4-yl)methyl)-4H-1,2,4-triazol-3-yl)methyl)-2-(4-fluorobenzylthio)-6,7-dihydro-1H-cyclopenta[d]pyrimidin-4(5H)-one]
7 | 67% | 53% | 86% |  |  |  |  |  | O=c1nc(SCc2ccc(F)cc2)n(Cc2nnc(CN3CCC(F)(F)C3)n2Cc2ccc(-c3ccc(C(F)(F)F)cc3)cc2)c2c1CCC2 [Example 104, 1-((5-((3,3-difluoropyrrolidin-1-yl)methyl)-4-((4′-(trifluoromethyl)biphenyl-4-yl)methyl)-4H-1,2,4-triazol-3-yl)methyl)-2-(4-fluorobenzylthio)-6,7-dihydro-1H-cyclopenta[d]pyrimidin-4(5H)-one]
8 | 89.1% | 69% | 95% |  |  |  |  |  | CN(Cc1ccc(F)cc1)Cc1cnc(Cn2c(SCc3ccc(F)cc3)nc(=O)c3c2CCC3)n1Cc1ccc(-c2ccc(C(F)(F)F)cc2)cc1 [Example 44]
9 | 76% | 69% | 91% |  |  |  |  |  | C[C@@H]1CN(Cc2nnc(Cn3c(SCc4ccc(F)cc4)nc(=O)c4c3CCC4)n2Cc2ccc(-c3ccc(C(F)(F)F)cc3)cc2)C[C@H](C)O1 [Example 84, 1-((5-(((2S,6R)-2,6-dimethylmorpholino)methyl)-4-((4′-(trifluoromethyl)biphenyl-4-yl)methyl)-4H-1,2,4-triazol-3-yl)methyl)-2-(4-fluorobenzylthio)-6,7-dihydro-1H-cyclopenta[d]pyrimidin-4(5H)-one]
10 | 75% | 68% | 92% |  |  |  |  |  | CCS(=O)(=O)NCc1nnc(Cn2c(SCc3ccc(F)cc3)nc(=O)c3c2CCC3)n1Cc1ccc(-c2ccc(C(F)(F)F)cc2)cc1 [Example 111, N-((5-((2-(4-fluorobenzylthio)-4-oxo-4,5,6,7-tetrahydro-1H-cyclopenta[d]pyrimidin-1-yl)methyl)-4-((4′-(trifluoromethyl)biphenyl-4-yl)methyl)-4H-1,2,4-triazol-3-yl)methyl)ethanesulfonamide]
11 | 97% | 100% |  | > 90% | > 80% |  |  |  | CCN(CC)CCN(C)Cc1onc(Cn2c(SCc3ccc(F)cc3)nc(=O)c3c2CCC3)c1Cc1ccc(-c2ccc(C(F)(F)F)cc2)cc1 [Example 159, 1-((5-(((2-(diethylamino)ethyl)(methyl)amino)methyl)-4-((4′-(trifluoromethyl)biphenyl-4-yl)methyl)isoxazol-3-yl)methyl)-2-(4-fluorobenzylthio)-6,7-dihydro-1H-cyclopenta[d]pyrimidin-4(5H)-one]
12 | 94% | 88% | 100% | > 90% | > 80% |  |  |  | CN(C)/N=C/c1nnc(Cn2c(SCc3ccc(F)cc3)nc(=O)c3c2CCC3)n1Cc1ccc(-c2ccc(C(F)(F)F)cc2)cc1 [Example 116, (E)-1-((5-((2,2-dimethylhydrazono)methyl)-4-((4′-(trifluoromethyl)biphenyl-4-yl)methyl)-4H-1,2,4-triazol-3-yl)methyl)-2-(4-fluorobenzylthio)-6,7-dihydro-1H-cyclopenta[d]pyrimidin-4(5H)-one]
13 | 94% | 90% |  | > 90% | > 80% |  |  |  | CC(NCCN(C)C)c1nnc(Cn2c(SCc3ccc(F)cc3)nc(=O)c3c2CCC3)n1Cc1ccc(-c2ccc(C(F)(F)F)cc2)cc1 (centres unmarked) [Example 128, 1-((5-(1-(2-(dimethylamino)ethylamino)ethyl)-4-((4′-(trifluoromethyl)biphenyl-4-yl)methyl)-4H-1,2,4-triazol-3-yl)methyl)-2-(4-fluorobenzylthio)-6,7-dihydro-1H-cyclopenta[d]pyrimidin-4(5H)-one]
14 | 81.9% | 83% | 96% |  |  | 73.8% | 76% | 94% | COC(=O)CN(C)Cc1nnc(Cn2c(SCc3ccc(F)cc3)nc(=O)c3c2CCC3)n1Cc1ccc(-c2ccc(C(F)(F)F)cc2)cc1 [Example 62, methyl 2-(((5-((2-(4-fluorobenzylthio)-4-oxo-4,5,6,7-tetrahydro-1H-cyclopenta[d]pyrimidin-1-yl)methyl)-4-((4′-(trifluoromethyl)biphenyl-4-yl)methyl)-4H-1,2,4-triazol-3-yl)methyl)(methyl)amino)acetate]
